Experimental data published in US4174407A, “Antiviral agent” (Sumitomo Chemical Company, Limited, priority 1978, dated 1979).
≈ marks a conversion by molar mass, not a printed value. Where a name gives a salt, the structure may show the parent alone. Read-outs that look alike come from different tables or passages of the source.

Assays:
[1] = test system: herpes simplex type 1 (HF strain); assay: Tube dilution method, virus-induced cytopathic effect in tissue culture (antiviral MIC); type: cell-based; settings: for MIC: read-out: Minimum virus growth inhibition concentration (MIC)
Influenza Ao PR/8 = type: in vivo, ddY male mice; settings: 7 days after infection, control 4.8
[2] = Cytotoxicity in KB cells by microscopic examination (MCC); settings: human
[3] = Cytotoxicity in HeLa cells by microscopic examination (MCC); settings: human
DNA virus = settings: general knowledge; cited from earlier work
[4] = test system: herpes simplex virus type 1 (HF strain); assay: Effects on herpeskeratitis, eye lotion in rabbits (cure period and toxicity); type: in vivo; settings: 0.5% eye lotion in 1.4% polyvinyl alcohol, every two hours, five times a day, 7 days; rabbit eye
Procedure: (§1) Therapeutic effects were determined by using two experimental infections as follows.
The corneal epithelium of each eye of rabbit was anesthetized and scratched, then each eye was infected with herpes simplex virus type 1 (HF strain). One of each infected eyes was used for treatment with the compound A and the other was used for viral control. One half % eye lotion of the compound A in 1.4% polyvinyl alcohol was applied every two hours, five times a day during 7 days 12 hr. after virus infection. Each eye was daily examined and scored the lesion on the conjunctiva, cornea and the iris for 7 days. In this score 0 means normal and 4 means maximal severity. The eyes scratched but not infected with virus were similarly treated with compound A in parallel as toxicity control.

[5] = test system: herpes simplex virus type 1 HF strain; assay: Effects on herpesencephalitis, intracerebrally infected mice; type: in vivo; settings: for Survival ratio (no. of survivors/no. of total mice): 21st day, control 0/10
Procedure: as §1
Mice were anesthetized with ether and were infected intracerabrally (i.c.) with 30 LD50 of herpes simplex virus type 1 HF strain. Infected mice were treated with various therapeutic schedules. The antiviral effects of the compound A was determined by comparing the number of survivors at 3 weeks after viral infection and the mean survival days of the drug-treatedand placebo-treated animals.
(a) Dose of administration
(b) Schedule of administration of each route was as follows, i.c. (intracerebrally): single administration simultaneously with virus infection p.o (per os): twice administration per day during 8.5 days from 4 hr. after virus infection s.c. (subcutaneously): twice administration per day during 8.5 days from 4 hr. after virus infection i.v. (intravenously): single administration at 3 hr. after virus infection
(c) The animals were examined for 21 days and deaths occuring were recorded.
(d) Survivors at 21st day.

herpes virus = assay: Antiviral activities on herpes virus (general statement)
influenza virus = assay: Antiviral activities on influenza virus (general statement)
Newcastle disease virus = settings: Aigami et al., J. Med. Chem. 19, 536, 1976; cited from earlier work
in vivo = settings: mouse
[6] = host cells KB, 1000 TCD50, 72 hr, 37° C.

## NC12CC3CC(CC(C3)C1)C2 [Amantadine HCl, amantadine hydrochloride, reference compound]
[1]; Human alphaherpesvirus 1, 72 h
  MIC: 50 µg/mL
[1]; [6]
  Minimum virus growth inhibition concentration (MIC): 50 µg/mL
Influenza Ao PR/8; 10 mg/kg s.c., * P<0.05 (Student's t test)
  Lung Lesion Score: 4.3
Influenza Ao PR/8; 25 mg/kg s.c., * P<0.05 (Student's t test)
  Lung Lesion Score: 4.1
Influenza Ao PR/8; 50 mg/kg s.c., * P<0.05 (Student's t test)
  Lung Lesion Score: 4.0
[2]
  MCC at 72 h: > 50 µg/mL
[3]
  MCC at 72 h: > 50 µg/mL

## CN(C)CCOCC(=O)NC12CC3CC(CC(C3)C1)C2 [Tromantadine, tromantadine]
[1]; Human alphaherpesvirus 1, host cells KB, 1000 TCD50, 72 hr, 37° C.
  MIC: 25 µg/mL (≈ 89.2 µM)
DNA virus
  anti DNA viral activities: known to show an anti DNA viral activities
[2]
  MCC at 72 h: > 50 µg/mL

## NC12CCCC3CC(CCC31)C2 (centres unmarked) [Compound A, 3-Amino-4-homoisotwistane hydrochloride]
[1]; Human alphaherpesvirus 1, host cells HeLa, 1000 TCD50, 72 hr, 37° C.
  MIC: 5 µg/mL
[1]; [6]
  Minimum virus growth inhibition concentration (MIC): 5 µg/mL
[4]
  cure period as compared with control: did not prolong the cure period as compared with control
[5]; 5 mg/kg i.c., single, simultaneously with virus infection
  Survival ratio (no. of survivors/no. of total mice): 7/10
[5]; 5 mg/kg i.c., single, simultaneously with virus infection, control 5.6
  Mean no. of survival days: 7.2 days
[5]; 10 mg/kg i.v., single at 3 hr. after infection
  Survival ratio (no. of survivors/no. of total mice): 2/10
[5]; 10 mg/kg i.v., single at 3 hr. after infection, control 6.2
  Mean no. of survival days: 8.0 days
[5]; 100 mg/kg p.o., twice per day during 8.5 days from 4 hr. after infection
  Survival ratio (no. of survivors/no. of total mice): 3/10
[5]; 100 mg/kg p.o., twice per day during 8.5 days from 4 hr. after infection, control 5.9
  Mean no. of survival days: 7.8 days
[5]; 100 mg/kg s.c., twice per day during 8.5 days from 4 hr. after infection
  Survival ratio (no. of survivors/no. of total mice): 5/10
[5]; 100 mg/kg s.c., twice per day during 8.5 days from 4 hr. after infection, control 5.8
  Mean no. of survival days: 7.6 days
Influenza Ao PR/8; 7.5 mg/kg s.c., no significance mark
  Lung Lesion Score: 4.6
Influenza Ao PR/8; 15 mg/kg s.c., * P<0.05 (Student's t test)
  Lung Lesion Score: 4.0
Influenza Ao PR/8; 30 mg/kg s.c., * P<0.05 (Student's t test)
  Lung Lesion Score: 4.2
Herpes virus; comparison with tromantadine
  antiviral effects on herpes virus and so on, compared with tromantadine: much superior to those of tromantadine
Herpes virus; general statement
  antiviral activities on herpes virus: very strong antiviral activities
Influenza virus
  antiviral activities on influenza virus: very strong antiviral activities
Newcastle disease virus
  antiviral effects on Newcastle disease virus: antiviral effects on Newcastle disease virus
In vivo; iv
  LD50: 32 mg/kg
In vivo; po
  LD50: 300 mg/kg
[2]
  MCC at 72 h: 50 µg/mL
[3]
  MCC at 72 h: 50 µg/mL
